{"source": "patent US6900315B2", "about": "“2-amino-9H-purin-9-yl compounds and methods for inhibiting/treating HIV infections and AIDS related symptoms” (Yale University, priority 2001, dated 2005)", "key": {"HIV [1]": {"tested_on": "HIV", "settings": "pairs: D4T and AZT, 3TC and ddC, FD4C and 3TC, abacavir and cyclo D4G; Bridges et al., Dutschman et al.; cited from earlier work"}, "HEP-G2": {"tested_on": "HEP-G2", "assay": "Toxicity, dye based cell growth assay, HEP-G2", "settings": "Homo sapiens, HepG2, 120 h, read-out: IC50 (inhibited 50% of the cell growth)", "method": "(§1) To determine the toxicity of the compounds to various cell lines (Table 1, below), a similar dye based assay is performed in the absence of HIV. The toxicity of the compounds alone therefore was determined."}, "HIV IIIB": {"tested_on": "HIV IIIB", "assay": "Anti-HIV activity in MT-2 cells infected with HIV IIIB, MTT dye cell viability", "format": "cell-based", "settings": "Human immunodeficiency virus 1, IIIB, MT2, 120 h, read-out: EC50 (concentration necessary to save 50% of the cells)", "method": "To assess the ability of the compounds according to the present invention to inhibit viral infection relative to other compounds experiments were performed in the MT-2 cell line, as previously described by Larder, et al., Antimicrobial Agents & Chemotherapy, vol. 34, 436 (1990). […] Cells were infected at an initial multiplicity of infection (MOI) of 0.1 and grown for 5 days. Cell viability was assessed by the use of dye metabolized by viable cells."}, "HIV [2]": {"tested_on": "HIV", "assay": "Anti-HIV drug combination (synergy, isobologram of FEC50) in cell culture", "format": "cell-based", "method": "Points on this line represent the compounds working independently.\nIn an attempt to understand how D4G prodrugs of the present invention would interact with other clinically approved compounds, experiments were performed with drug combinations. […] Points on the line represent two compounds working independently. […] See, Bridges, et al., Biochem. Pharmacol., 51, 731 (1996) and Dutschman, et al., Antimicro. Agents Chemother. 42, 1799 (1998)."}, "[3]": {"tested_on": "mitochondrial DNA in CEM cells", "assay": "Mitochondrial toxicity: ratio of mitochondrial DNA to Alu repeat in CEM cells", "format": "cell-based", "settings": "8 days", "source_text": "After 8 days of growth the cells were lysed and probed for the amount of mitochondrial DNA and normalized for differences in the amount of total DNA by probing for the Alu repeat. By comparing the amount of mitochondrial DNA to the amount of Alu repeat the % decrease in mitochondrial DNA in the presence of various concentrations of drug can be obtained. All experiments were done in triplicate. Techniques which are presented here have been previously described in Chen and Cheng, J. Biol. Chem., vol. 264, 11934-7 (1989)."}, "KB": {"tested_on": "KB", "assay": "Toxicity, dye based cell growth assay, KB", "settings": "Homo sapiens, 120 h", "method": "as §1"}, "CEM": {"tested_on": "CEM", "assay": "Toxicity, dye based cell growth assay, CEM", "settings": "Homo sapiens, CCRF-CEM, 120 h, read-out: IC50 (inhibited 50% of the cell growth)", "method": "as §1"}, "HeLa": {"tested_on": "HeLa", "assay": "Toxicity, dye based cell growth assay, HeLa", "settings": "Homo sapiens, 120 h", "method": "as §1"}, "MT-2": {"tested_on": "MT-2", "assay": "Toxicity, dye based cell growth assay in absence of HIV, MT-2", "settings": "Homo sapiens, MT2, 120 h, read-out: IC50 (inhibited 50% of the cell growth)", "method": "as §1"}, "[4]": {"molecular_target": "T1, wild type HIV-1 reverse transcriptase (Human immunodeficiency virus type 1 group M subtype B, UniProt P04585)", "T1 construct": "a mixture of 100 nM HIV-1 reverse transcriptase and 300 nM primer/template", "parameters": "kpol/Kd: unit not given here", "settings": "from Ray and Anderson or Furman et al., cited from earlier work"}, "[5]": {"settings": "read-out: IC50 (inhibited 50% of the cell growth)"}}, "note": "Like-named read-outs stand apart in the source and are kept apart here.", "data": [{"smiles": "Nc1nc(=O)n([C@@H]2C=C[C@H](CO)O2)cc1F", "note": "[FD4C]", "values": [{"measurement": "anti-HIV interaction of two analogs of the same base", "setting": "HIV [1]", "value": "not synergistic"}]}, {"smiles": "Nc1nc(NC2CC2)c2ncn([C@H]3C=C[C@@H](CO)C3)c2n1", "note": "[Abacavir]", "values": [{"measurement": "IC50", "setting": "HEP-G2; HEP-G2, hepatoma cell line, 5 days", "value": "180 ± 12", "unit": "µM"}, {"measurement": "EC50", "setting": "HIV IIIB", "value": "2 ± 0.4", "unit": "µM"}, {"measurement": "anti-HIV interaction in combination with 3TC", "setting": "HIV [2]; FIG. 3 and FIG. 4", "value": "merely additive"}, {"measurement": "% Control (mtDNA/Alu)", "setting": "[3]; human, 1 μM", "value": 110, "unit": "%"}, {"measurement": "Ration of mtDNA/Alu", "setting": "[3]; human, 1 μM", "value": "1.18 ± 0.03"}, {"measurement": "% Control (mtDNA/Alu)", "setting": "[3]; human, 10 μM", "value": 119, "unit": "%"}, {"measurement": "Ration of mtDNA/Alu", "setting": "[3]; human, 10 μM", "value": "1.27 ± 0.06"}, {"measurement": "% Control (mtDNA/Alu)", "setting": "[3]; human, 200 μM", "value": 127, "unit": "%"}, {"measurement": "Ration of mtDNA/Alu", "setting": "[3]; human, 200 μM", "value": "1.36 ± 0.06"}, {"measurement": "IC50", "setting": "KB; read-out: IC50 (inhibited 50% of the cell growth), oral carcinoma, 5 days", "value": "200 ± 21", "unit": "µM"}, {"measurement": "anti-HIV interaction of two analogs of the same base", "setting": "HIV [1]", "value": "not synergistic"}, {"measurement": "IC50", "setting": "CEM; CEM, T cell line, 5 days", "value": "200 ± 50", "unit": "µM"}, {"measurement": "IC50", "setting": "HeLa; read-out: IC50 (inhibited 50% of the cell growth), cervical cancer cell line, 5 days", "value": "500 ± 33", "unit": "µM"}, {"measurement": "IC50", "setting": "MT-2; MT-2, HTLV infected T cell line, 5 days", "value": "60 ± 13", "unit": "µM"}]}, {"smiles": "Cc1cn([C@H]2C=C[C@@H](CO)O2)c(=O)[nH]c1=O", "note": "[d4T, 2′,3′-didehydro-2′,3′-dideoxythymidine]", "values": [{"measurement": "IC50", "setting": "HEP-G2", "value": "390 ± 26", "unit": "µM"}, {"measurement": "EC50", "setting": "HIV IIIB", "value": "3 ± 0.7", "unit": "µM"}, {"measurement": "anti-HIV interaction in combination with AZT", "setting": "HIV [2]; FIG. 4, D4T with AZT data not shown", "value": "only additive"}, {"measurement": "% Control (mtDNA/Alu)", "setting": "[3]; compound 1 μM, CEM cells", "value": 110, "unit": "%"}, {"measurement": "Ration of mtDNA/Alu", "setting": "[3]; compound 1 μM, CEM cells", "value": "1.18 ± 0.03"}, {"measurement": "% Control (mtDNA/Alu)", "setting": "[3]; compound 10 μM, CEM cells", "value": 94, "unit": "%"}, {"measurement": "Ration of mtDNA/Alu", "setting": "[3]; compound 10 μM, CEM cells", "value": "1.00 ± 0.02"}, {"measurement": "% Control (mtDNA/Alu)", "setting": "[3]; compound 200 μM, CEM cells", "value": 21, "unit": "%"}, {"measurement": "Ration of mtDNA/Alu", "setting": "[3]; compound 200 μM, CEM cells", "value": "0.22 ± 0.03"}, {"measurement": "IC50", "setting": "KB; [5]", "value": "450 ± 47", "unit": "µM"}, {"measurement": "anti-HIV interaction of two analogs of the same base", "setting": "HIV [1]", "value": "not synergistic"}, {"measurement": "IC50", "setting": "CEM", "value": "190 ± 30", "unit": "µM"}, {"measurement": "IC50", "setting": "HeLa; [5]", "value": "480 ± 31", "unit": "µM"}, {"measurement": "IC50", "setting": "MT-2", "value": "> 100", "unit": "µM"}]}, {"smiles": "Nc1nc2c(ncn2[C@H]2CO[C@@H](COP(=O)(O)OP(=O)(O)OP(=O)(O)O)O2)c(=O)[nH]1", "note": "[DXGTP]", "values": [{"measurement": "Kd", "setting": "[4]; Table 3, substrate DNA/DNA", "value": "2.5 ± 0.2", "unit": "µM"}, {"measurement": "Selectivity = (kpol/Kd)dGTP/(kpol/Kd)analog", "setting": "[4]; Table 3, substrate DNA/DNA", "value": 3}, {"measurement": "kpol", "setting": "[4]; Table 3, substrate DNA/DNA", "value": "1.46 ± 0.03", "unit": "s⁻¹"}, {"measurement": "kpol/Kd", "setting": "[4]; Table 3, substrate DNA/DNA", "value": "0.58 ± 0.05"}, {"measurement": "Kd", "setting": "[4]; Table 3, substrate DNA/RNA", "value": "8.8 ± 1.1", "unit": "µM"}, {"measurement": "Selectivity = (kpol/Kd)dGTP/(kpol/Kd)analog", "setting": "[4]; Table 3, substrate DNA/RNA", "value": 20}, {"measurement": "kpol", "setting": "[4]; Table 3, substrate DNA/RNA", "value": "1.5 ± 0.1", "unit": "s⁻¹"}, {"measurement": "kpol/Kd", "setting": "[4]; Table 3, substrate DNA/RNA", "value": "0.17 ± 0.02"}]}]}
